tested on: c-Myc; experiment: c-Myc ELISA assay protocol in 22RV-1 cells; type: cell-based, human; settings: 18 h, read-out: cMyc IC50
Procedure: (§1) In each bioassay, cells were treated with varying amounts of compounds encompassed by the present disclosure, as shown in Table 1. The degradation of the following proteins were evaluated in this study: TANK-binding kinase 1 (TBK1), estrogen receptor α (ERα), bromodomain-containing protein 4 (BRD4), androgen receptor (AR), and c-Myc.
5. c-Myc ELISA Assay Protocol
22RV-1 cells were purchased from ATCC and cultured in RPMI+10% FBS media. Cells were harvested using trypsin (Gibco #25200-114), counted and seeded at 30,000 cells/well at a volume of 75 μL/well in RPMI +10% FBS media in 96-well plates. The cells were dosed with compounds diluted in 0.1% DMSO, incubated for 18 h then washed and lysed in 50 uL RIPA buffer (50 mM Tris pH8, 150 mM NaCl, 1% Tx-100, 0.1% SDS, 0.5% sodium deoxycholate) supplemented with protease and phosphatase inhibitors. The lysates were clarified at 4000 rpm at 4° C. for 10 minutes then aliquots were added into a 96-well ELISA plate of Novex Human c-myc ELISA kit from Life Technologies Catalog #KHO2041. 50 ul of c-Myc Detection antibody was added into every well, the plates incubated at room temperature for 3 hrs, then washed with ELISA wash buffer. 100 uL of the anti-rabbit IgG-HRP secondary antibody was added to each well and incubated at room temperature for 30 minutes. The plates were washed with ELISA wash buffer, 100 μL TMB added to each well, and then monitored every 5 minutes for a color change. 100 μL of stop solution is added and the plates read at 450 nm.

IC50	SMILES
< 50 nM	Cc1sc2c(c1C)C(c1ccc(Cl)cc1)=N[C@@H](CC(=O)NCCCOCCCNc1cccc3c1C(=O)N(C1CCC(=O)NC1=O)C3=O)c1nnc(C)n1-2 (stereo partly drawn) [Compound 24, 2-((9S)-7-(4-chlorophenyl)-4,5,13-trimethyl-3-thia-1,8,11,12-tetraazatricyclo [8.3.0.02,6]trideca-2(6),4,7,10, 12-pentaen-9-yl)-N-(3-(3-((2-(2,6-dioxopiperidin-3-yl)-1,3-dioxo-2,3-dihydro-1H-isoindol-4-yl)amino)propoxy)propyl)acetamide]
< 50 nM	Cc1sc2c(c1C)C(c1ccc(Cl)cc1)=N[C@@H](CC(=O)N[C@H](C)c1ccc(OCCCCNc3cccc4c3C(=O)N(C3CCC(=O)NC3=O)C4=O)cc1)c1nnc(C)n1-2 (stereo partly drawn) [Compound 28]
> 50 nM	Cc1sc2c(c1C)C(c1ccc(Cl)cc1)=N[C@@H](CC(=O)Nc1ccc(OCCOCCOCCOCCNc3cccc4c3C(=O)N(C3CCC(=O)N(C)C3=O)C4=O)cc1)c1nnc(C)n1-2 (stereo partly drawn) [Compound 50, 2-[(9S)-7-(4-chlorophenyl)-4,5,13-trimethyl-3-thia-1,8,11,12-tetraazatricyclo [8.3.0.0^2,^6]trideca-2(6),4,7,10,12-pentaen-9-yl]-N-[4-({1-[2-(1-methyl-2,6-dioxopiperidin-3-yl)-1,3-dioxo-2,3-dihydro-1H-isoindol-4-yl]-4,7,10-trioxa-1-azadodecan-12-yl}oxy)phenyl] acetamide]

target: T1, androgen receptor (AR) (Homo sapiens, UniProt P10275); experiment: AR ELISA protocol, degradation in VCaP cells; type: cell-based; design: Dmax: dose or concentration left out as unconfirmed; settings: 1 uM, 16 h
T1 construct: detects endogenous levels of total androgen receptor protein; endogenous in cells; host or cells: VCaP
T1 sequence (P10275 1-920): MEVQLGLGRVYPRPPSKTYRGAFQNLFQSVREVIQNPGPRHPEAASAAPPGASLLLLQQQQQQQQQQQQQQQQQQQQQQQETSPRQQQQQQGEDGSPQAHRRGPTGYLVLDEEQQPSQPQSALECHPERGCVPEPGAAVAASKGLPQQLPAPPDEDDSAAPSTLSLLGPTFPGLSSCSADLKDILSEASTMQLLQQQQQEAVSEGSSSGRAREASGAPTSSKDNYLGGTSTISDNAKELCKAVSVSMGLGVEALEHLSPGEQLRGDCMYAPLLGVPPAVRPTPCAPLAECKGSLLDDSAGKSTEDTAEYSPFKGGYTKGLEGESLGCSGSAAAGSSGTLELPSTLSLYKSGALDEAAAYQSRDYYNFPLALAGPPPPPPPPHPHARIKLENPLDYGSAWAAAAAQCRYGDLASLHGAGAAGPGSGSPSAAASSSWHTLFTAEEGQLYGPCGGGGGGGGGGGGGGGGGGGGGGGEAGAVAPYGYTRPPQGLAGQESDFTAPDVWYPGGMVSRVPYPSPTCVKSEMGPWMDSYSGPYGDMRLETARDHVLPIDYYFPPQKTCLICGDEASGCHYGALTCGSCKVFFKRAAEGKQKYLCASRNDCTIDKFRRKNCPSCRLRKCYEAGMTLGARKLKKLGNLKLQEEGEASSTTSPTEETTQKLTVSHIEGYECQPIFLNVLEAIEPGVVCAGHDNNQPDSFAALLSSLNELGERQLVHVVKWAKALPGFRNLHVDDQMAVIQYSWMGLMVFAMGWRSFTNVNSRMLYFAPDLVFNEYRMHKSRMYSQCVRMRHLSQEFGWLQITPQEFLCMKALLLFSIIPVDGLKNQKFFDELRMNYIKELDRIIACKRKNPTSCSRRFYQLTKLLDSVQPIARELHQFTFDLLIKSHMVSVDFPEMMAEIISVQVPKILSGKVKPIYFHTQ
Procedure: as §1
VCaP cells were purchased from ATCC and cultured in Dulbecco's Modified Eagle's Medium (ATCC), supplemented with 10% FBS (ATCC) and Penicillin/Streptomycin (Life Technologies). DMSO control and compound treatments (0.0001 μM-1 μM) were performed in 96-well plates for 16 h. Cells were harvested, and lysed with Cell Lysis Buffer (Catalog #9803) (20 mM Tris-HCL (pH 7.5), 150 mM NaCl, 1 mM Na2EDTA, 1 mM EGTA, 1% Triton, 2.5 mM sodium pyrophosphate, 1 mM B-glycerophosphate, 1 mM Na3VO4, 1 ug/ml leupeptin. Lysates were clarified at 16,000 g for 10 minutes, and loaded into the PathScan AR ELISA (Cell Signaling Catalog #12850). The PathScan® Total Androgen Receptor Sandwich ELISA Kit is a solid phase sandwich enzyme-linked immunosorbent assay (ELISA) that detects endogenous levels of total androgen receptor protein. An Androgen Receptor Rabbit mAb has been coated onto the microwells. After incubation with cell lysates, androgen receptor protein is captured by the coated antibody. Following extensive washing, an Androgen Receptor Mouse Detection mAb is added to detect the captured androgen receptor protein. Anti-mouse IgG, HRP-linked Antibody is then used to recognize the bound detection antibody. HRP substrate, TMB, is added to develop color. The magnitude of absorbance for the developed color is proportional to the quantity of total androgen receptor protein. Antibodies in kit are custom formulations specific to kit.

SMILES	Dmax at 1 µM
CC1(C)C(=O)N(c2ccc(C#N)c(C(F)(F)F)c2)C(=S)N1c1ccc(OCCOCCOCCOCCNc2cccc3c2C(=O)N([C@H]2CCC(=O)NC2=O)C3=O)cc1 [Compound 4, (S)-4-(3-(4-(2-(2-(2-(2-((2-(2,6-dioxopiperidin-3-yl)-1,3-dioxoisoindolin-4-yl)amino)ethoxy)ethoxy)ethoxy)ethoxy)phenyl)-4,4-dimethyl-5-oxo-2-thioxoimidazolidin-1-yl)-2-(trifluoromethyl) benzonitrile]	31 to 50%
CC1(C)C(=O)N(c2ccc(C#N)c(C(F)(F)F)c2)C(=S)N1c1ccc(OCCOCCOCCOCCNc2cccc3c2C(=O)N(C2CCC(=O)NC2=O)C3=O)cc1 (stereo not drawn) [Compound 3, 4-(3-(4-(2-(2-(2-(2-((2-(2,6-dioxopiperidin-3-yl)-1,3-dioxoisoindolin-4-yl)amino)ethoxy)ethoxy)ethoxy)ethoxy)phenyl)-4,4-dimethyl-5-oxo-2-thioxo-imidazolidin-1-yl)-2-(trifluoromethyl) benzonitrile]	31 to 50%
CC1(C)C(=O)N(c2ccc(C#N)c(C(F)(F)F)c2)C(=S)N1c1ccc(OCCOCCOCCOCCNc2cccc3c2C(=O)N([C@@H]2CCC(=O)NC2=O)C3=O)cc1 [Compound 5, (R)-4-(3-(4-(2-(2-(2-(2-((2-(2,6-dioxopiperidin-3-yl)-1,3-dioxoisoindolin-4-yl)amino)ethoxy)ethoxy)ethoxy)ethoxy)phenyl)-4,4-dimethyl-5-oxo-2-thioxoimidazolidin-1-yl)-2-(trifluoromethyl) benzonitrile]	31 to 50%
CC1(C)C(=O)N(c2ccc(C#N)c(C(F)(F)F)c2)C(=S)N1c1ccc(OCCOCCNc2cccc3c2C(=O)N(C2CCC(=O)NC2=O)C3=O)cc1 (stereo not drawn) [Compound 7, 4-(3-(4-(2-(2-((2-(2,6-dioxopiperidin-3-yl)-1,3-dioxoisoindolin-4-yl)amino)ethoxy)ethoxy)phenyl)-4,4-dimethyl-5-oxo-2-thioxoimidazolidin-1-yl)-2-(trifluoromethyl) benzonitrile]	10 to 30%
CC1(C)C(=O)N(c2ccc(C#N)c(C(F)(F)F)c2)C(=S)N1c1ccc(-c2ccc(OCCCCCNc3cccc4c3C(=O)N(C3CCC(=O)NC3=O)C4=O)cc2)cc1 (stereo not drawn) [Compound 13, 4-(3-(4-(4-((5-((2-(2,6-dioxopiperidin-3-yl)-1,3-dioxo-2,3-dihydro-1H-isoindol-4-yl)amino)pentyl)oxy)phenyl)phenyl)-4,4-dimethyl-5-oxo-2-sulfanylidene-imidazolidin-1-yl)-2-(trifluoromethyl) benzonitrile]	> 50%
CC1(C)C(=O)N(c2ccc(C#N)c(C(F)(F)F)c2)C(=S)N1c1ccc(OCCOCCOCCOCCOCCOCCNc2cccc3c2C(=O)N(C2CCC(=O)NC2=O)C3=O)cc1 (stereo not drawn) [Compound 6, 4-(3-(4-((17-((2-(2,6-dioxopiperidin-3-yl)-1,3-dioxoisoindolin-4-yl)amino)-3,6,9,12,15-pentaoxa-heptadecyl)oxy)phenyl)-4,4-dimethyl-5-oxo-2-thioxoimidazolidin-1-yl)-2-(trifluoromethyl) benzonitrile]	10 to 30%
CC1(C)C(=O)N(c2ccc(C#N)c(C(F)(F)F)c2)C(=S)N1c1ccc(OCCOCCOCCNc2cccc3c2C(=O)N(C2CCC(=O)NC2=O)C3=O)cc1 (stereo not drawn) [Compound 8, 4-(3-(4-(2-(2-(2-((2-(2,6-dioxopiperidin-3-yl)-1,3-dioxoisoindolin-4-yl)amino)ethoxy)ethoxy)ethoxy)phenyl)-4,4-dimethyl-5-oxo-2-thioxoimidazolidin-1-yl)-2-(trifluoromethyl) benzonitrile]	10 to 30%
CC1(C)C(=O)N(c2ccc(C#N)c(C(F)(F)F)c2)C(=S)N1c1ccc(OCCCOCCCOCCNc2cccc3c2C(=O)N(C2CCC(=O)NC2=O)C3=O)cc1 (stereo not drawn) [Compound 2]	31 to 50%
CC1(C)[C@H](NC(=O)c2ccc(OCCCCCOCCCNc3cccc4c3C(=O)N(C3CCC(=O)NC3=O)C4=O)cc2)C(C)(C)[C@H]1Oc1ccc(C#N)c(Cl)c1 (stereo partly drawn) [Compound 11]	> 50%
CC1(C)C(=O)N(c2ccc(C#N)c(C(F)(F)F)c2)C(=S)N1c1ccc(OCCCOCCOCCNc2cccc3c2C(=O)N(C2CCC(=O)NC2=O)C3=O)cc1 (stereo not drawn) [Compound 9, 4-(3-(4-(3-(2-(2-((2-(2,6-dioxopiperidin-3-yl)-1,3-dioxoisoindolin-4-yl)amino)ethoxy)ethoxy)propoxy)phenyl)-4,4-dimethyl-5-oxo-2-thioxoimidazolidin-1-yl)-2-(trifluoromethyl) benzonitrile]	10 to 30%

same assay, conditions: 16 h

SMILES	Dmax
CC1(C)C(=O)N(c2ccc(C#N)c(C(F)(F)F)c2)C(=S)N1c1ccc(OCCCOCCOCCOCCNc2cccc3c2C(=O)N(C2CCC(=O)NC2=O)C3=O)cc1 (stereo not drawn) [Compound 1, 4-(3-(4-(3-(2-(2-(2-((2-(2,6-dioxopiperidin-3-yl)-1,3-dioxoisoindolin-4-yl)amino)ethoxy)ethoxy)ethoxy)propoxy)phenyl)-4,4-dimethyl-5-oxo-2-thioxoimidazolidin-1-yl)-2-(trifluoromethyl) benzonitrile]	10 to 30%
CC1(C)C(=O)N(c2ccc(C#N)c(C(F)(F)F)c2)C(=S)N1c1ccc(OCCCCOCCOCCOCCNc2cccc3c2C(=O)N(C2CCC(=O)NC2=O)C3=O)cc1 (stereo not drawn) [Compound 10]	31 to 50%

Reference: US11834460B2, “Imide-based modulators of proteolysis and associated methods of use” (YALE UNIVERSITY, priority 2018, dated 2023)
